In PMC12040169 (PLOS Biology, 2025):

Assay: in vitro
Details: human, hela cells, % viability

SMILES	viability at 28.5 h, 10 µM [%]
C=CCN(CC=C)CCOc1c(C)cc(C)cc1Br [CBK266070G]	110
C=CCc1cccc(Cl)c1OCCN1CCNCC1 [CBK266071G]	105
Cc1ccc(NC(=O)CSc2nnc(C(O)c3ccccc3)n2-c2ccccc2)c(C)c1 (stereo not shown) [CBK266072]	106
COc1ccc(OC)c(NC(=O)CSc2nnc(-c3ccc(F)cc3)n2C)c1 [CBK266073]	92
COc1cccc(-c2nnc(SCC(=O)Nc3cccc([N+](=O)[O-])c3)n2C)c1 [CBK266074]	106
O=C(CSc1nnc(-c2ccccc2O)n1Cc1ccccc1)NC12CC3CC(CC(C3)C1)C2 [CBK266075]	88.9
O=c1c2ccccc2nc(SCc2cccc3nsnc23)n1-c1ccccc1 [CBK266076]	82.1
c1ccc(SCc2nc(-c3cccnc3)no2)cc1 [CBK266078]	101
Nn1c(SCC(=O)Nc2cccc3ccccc23)nnc1-c1ccccc1Cl [CBK266080]	97.7
O=C(C1=C(O)C(=O)N(CCCn2ccnc2)C1c1ccc(Br)cc1)c1ccc2c(c1)OCCO2 (stereo not shown) [CBK266081]	104
CC1(C)C2CCC1(CS(=O)(=O)N(Cc1ccccc1)Cc1ccccc1)C(=O)C2 (stereo not shown) [CBK266082]	107
CC(C)(C)c1cc(-c2nc3ccccc3[nH]2)c(O)c(-c2nc3ccccc3[nH]2)c1 [CBK266084]	90
Cc1ccc(OCC(=O)Nc2ccc(N3CCN(Cc4ccccc4)CC3)cc2)cc1C [CBK266085]	101
Cc1cc(NC(=O)CSc2nc3c(c(C(F)(F)F)n2)CCc2ccccc2-3)n(-c2ccccc2)n1 [CBK266086]	106
N#CC1=C(N)Oc2[nH]nc(-c3cccs3)c2C1c1ccco1 (stereo not shown) [CBK266088]	99
O=C(CSc1nc(-c2ccco2)cc(C(F)(F)F)n1)NCc1ccco1 [CBK266091]	95.1
CCOC(=O)COc1ccc2c(=O)c(Oc3ccc([N+](=O)[O-])cc3)c(C)oc2c1C [CBK266092]	96.6
Cc1ccc(-n2c3c(cc(C(=O)NCCCN4CCOCC4)c2=O)C(=O)CCC3)cc1 [CBK266094]	115
CSCCc1[nH]c(SCC(=O)Nc2cccc3ccccc23)nc1C [CBK266097]	91.3
COc1ccc(C(=O)NC(=S)Nc2ccc(N3CCN(C)CC3)cc2)cc1[N+](=O)[O-] [CBK266098C]	89
CN1CCN(c2cc(N)nc(N)n2)CC1 [CBK266102]	107

SMILES	viability at 28.5 h, 10 µM [%]
O=C(COc1ccc2ccccc2c1)Nc1ccc(N2CCN(Cc3ccccc3)CC2)cc1 [CBK266104]	98.3
O=C(O)C1CC(O)CN1S(=O)(=O)c1ccc(Cl)cc1 (stereo not shown) [CBK266106]	86.8
CC1(C(=O)O)CC(C)(C(=O)O)CC(C)(C(=O)O)C1 (stereo not shown) [CBK266107]	91.8
CC(=O)c1cc2c(cc1NC(=O)CSc1nc3ccccc3[nH]1)OCO2 [CBK266110]	69.8
COC(=O)c1ccc(NC(=O)CSc2nnc(-c3ccc(C)cc3)n2N)cc1 [CBK266114]	89.9
COc1ccc(-c2cc(C(F)(F)F)nc(SCC(=O)NN3CCN(C)CC3)n2)cc1 [CBK266115]	96.5
COc1cc(C(=O)Nc2ccc(N3CCN(C)CC3)cc2)ccc1OCc1ccc(Cl)cc1 [CBK266116]	99
CCOC(=O)C1CCN(CC(=O)Nc2ccc(S(N)(=O)=O)cc2)CC1 [CBK266118]	94
COc1ccc(C(CCN)c2ccccc2OC)cc1 (stereo not shown) [CBK266125]	103
COC(=O)C1C(=O)Oc2ccc3ccccc3c2C1C(C)C(=O)c1ccc(Br)cc1 (stereo not shown) [CBK266126]	114
CC(Sc1nc2ccccc2[nH]1)C(=O)Nc1ccc(S(N)(=O)=O)cc1 (stereo not shown) [CBK266128]	114
O=C(Nc1ccccc1[N+](=O)[O-])C1Cc2ccccc2CN1S(=O)(=O)c1ccc(F)cc1 (stereo not shown) [CBK266129]	102
COc1ccc(S(=O)(=O)Nc2ccc3oc4c(c3c2)CC(C)CC4)cc1[N+](=O)[O-] (stereo not shown) [CBK266131]	94.3
Cc1ccc(-n2c(SCC(=O)c3ccc4c(c3)OCO4)nnc2-c2ccncc2)cc1 [CBK266132]	104
O=C(CSc1nnc(-c2cccnc2)n1-c1ccc(Br)cc1)Nc1ccc2c(c1)OCCO2 [CBK266133]	96.4
CC(C)C(NC(=O)C(C)(C)Oc1ccc(Cl)cc1)C(=O)O (stereo not shown) [CBK266138]	94.5
COC(=O)CSc1nnc(COc2ccc3c(c2)OCO3)n1-c1ccccc1 [CBK266139]	107
CN1CCN(c2ccc(NC(=O)c3cccc(Br)c3)cc2)CC1 [CBK266140]	97.5
S=C(Nc1ccc(Nc2ccccc2)cc1)N1CCN(Cc2ccc3c(c2)OCO3)CC1 [CBK266141]	96.7
CCOC(=O)N1CCN(C(=O)C2CC=CCC2C(=O)O)CC1 (stereo not shown) [CBK266142]	104
S=C(Nc1ccc(Nc2ccccc2)cc1)N1CCN(C/C=C/c2ccccc2)CC1 [CBK266149]	102

SMILES	viability at 28.5 h, 10 µM [%]
NC(=O)CSc1nnc(SCc2cccc3ccccc23)s1 [CBK266150]	106
CC(=O)OC(COc1cccc(Cl)c1)Cn1cnc2cc(C)c(C)cc21 (stereo not shown) [CBK266152]	86.6
O=C(O)C1CC(O)CN1S(=O)(=O)c1ccc([N+](=O)[O-])cc1 (stereo not shown) [CBK266158]	100
CC(=O)OC(COc1ccc(F)cc1)Cn1cnc2ccccc21 (stereo not shown) [CBK266162]	104
CCOC(=O)N1CCN(CC(=O)Nc2cc3c(cc2C(C)=O)OCO3)CC1 [CBK266163]	99.8
Cc1cc(C)cc(NC(=O)C(Cc2ccccc2)C(=O)Nc2cc(C)cc(C)c2)c1 [CBK266165]	106
CC1(C)Cc2nc3sc(C(=O)O)c(NC(=O)c4ccccc4)c3cc2CO1 [CBK266166]	98.4
CC(=O)Nc1ccc(C(=O)CSc2nc(-c3ccccc3)c(-c3ccccc3)o2)cc1 [CBK266168]	87.6
COc1ccc(-c2cc(C(F)(F)F)nc(SCC(=O)Nc3ccc4c(c3)OCO4)n2)cc1OC [CBK266169]	101
CCn1c(SCC(=O)Nc2ccc(Br)cc2F)nnc1-c1ccc(OC)cc1 [CBK266172]	100
Fc1ccc(CCNC(=S)NC2CCCC2)cc1 [CBK266175]	99.9
O=C(CSc1nnc(-c2ccncc2)n1C1CCCCC1)Nc1ncc2c(n1)CC(c1ccccc1)CC2=O (stereo not shown) [CBK266177]	94.3
O=C(COc1ccc(Br)cc1)Nc1ccc(CN2CCCCC2)cc1 [CBK266181]	99.5
Cc1ccccc1OCCn1c(CCCO)nc2ccccc21 [CBK266182]	115
Cc1ccc(C(=O)NC(C)c2nnc(SCC(=O)c3ccc(Br)cc3)n2C)cc1 (stereo not shown) [CBK266183]	93.8
Cc1ccc2nc(-c3ccc(NC(=O)CSc4nnc(C)s4)cc3)sc2c1 [CBK266185]	92.5
Cc1ccc(O)c(NC(=O)c2nc3nc(C)cc(C(F)F)n3n2)c1 [CBK266186]	99.6
COc1ccc(C(=O)NC(CC(=O)O)c2ccc(OC)cc2)cc1 (stereo not shown) [CBK266188]	101
CC(Sc1nc(N)cc(=O)[nH]1)C(=O)Nc1ccc(S(N)(=O)=O)cc1 (stereo not shown) [CBK266191]	110
